Literature values as cited in article PMC7751758, “Repurposing Sigma-1 Receptor Ligands for COVID-19 Therapy?” (Frontiers in Pharmacology, 2020).
“And” between values parts separate entries of the source, which are not always exact repeats. Equal values may be shown once. “Also recorded” adds a separate entry of the source.

Tests used:
Sigma-1 receptor = conditions: for IC50: read-out: Sigma-1 receptor affinity IC50; for Ki: read-out: Sigma-1 receptor affinity Ki
[1] = test system: HCV infection of human hepatocarcinoma Huh-7 cells; conditions: absence of cytotoxicity at low micromolar and submicromolar concentrations; ref Gastaminza et al., 2010
[2] = test system: HCV-induced cytopathic effect on the engineered cell line n4mBid; conditions: leads of the cell protection screen; ref Chockalingam et al., 2010

Cl.Cl.OCCN1CCN(CCC=C2c3ccccc3Sc3ccc(C(F)(F)F)cc32)CC1 (mixture of isomers) [Flupentixol]
Antiviral activity: Virus (EBOV): active

NC(=NCc1ccc(Cl)cc1)SCCCc1cnc[nH]1 [Clobenpropit]
IC50 (Sigma-1 receptor): 1.08 µM | reduction in HCV infection of Huh-7 cells, as compared to the vehicle DMSO control [1]: > 85%

C[C@@H]1C[C@@H]([C@H](O)CC2CC(=O)NC(=O)C2)C(=O)[C@@H](C)C1 [Cycloheximide]
IC50 (Sigma-1 receptor): 1.03 µM | Antiviral activity: Virus (MERS-CoV): in vitro activity | Antiviral activity: Virus (SARS-CoV): in vitro activity

OCc1cc(C(O)CNCCCCCCOCCCCc2ccccc2)ccc1O (centres unmarked) [Salmeterol]
IC50 (Sigma-1 receptor): 0.151 µM | reduction in HCV infection of Huh-7 cells, as compared to the vehicle DMSO control [1]: > 85%

(−)-Butaclamol
IC50 (Sigma-1 receptor): 0.183 µM

CN1CCC(=C2c3ccccc3CC(=O)c3sccc32)CC1 [Ketotifen]
IC50 (Sigma-1 receptor): 3.8 µM | reduction in HCV infection of Huh-7 cells, as compared to the vehicle DMSO control [1]: > 85%

CN(C)CCOC(C)(c1ccccc1)c1ccc(Cl)cc1 (centres unmarked) [Chlorphenoxamine]
IC50 (Sigma-1 receptor): 1.76 µM | Antiviral activity: Virus (MERS-CoV): in vitro activity | Antiviral activity: Virus (SARS-CoV): in vitro activity

CNC1CC(c2ccc(Cl)c(Cl)c2)c2ccccc21 (centres unmarked) [Indatraline]
IC50 (Sigma-1 receptor): 0.737 µM | reduction in HCV infection of Huh-7 cells, as compared to the vehicle DMSO control [1]: > 85%

CN1CCC(=C2c3ccccc3C=Cc3ccccc32)CC1 [Cyproheptadine]
reduction in HCV infection of Huh-7 cells, as compared to the vehicle DMSO control [1]: > 85%

CC(=O)c1ccc2c(c1)N(CCCN1CCC(CCO)CC1)c1ccccc1S2 [Piperacetazine]
IC50 (Sigma-1 receptor): 0.823 µM | Antiviral activity: Virus (EBOV): active

COc1ccccc1OCCNCC(O)COc1cccc2[nH]c3ccccc3c12 (centres unmarked) [Carvedilol]
IC50 (Sigma-1 receptor): 1.57 µM | reduction in HCV infection of Huh-7 cells, as compared to the vehicle DMSO control [1]: > 85%

CC(=O)[C@H]1CC[C@H]2[C@@H]3CCC4=CC(=O)CC[C@]4(C)[C@H]3CC[C@]12C [Progesterone]
IC50 (Sigma-1 receptor): 1.96 µM | Ki (Sigma-1 receptor): 0.173 to 0.196 µM and 0.26 to 0.338 µM

CC(C)N1CCN(c2ccc(OCC3COC(Cn4cncn4)(c4ccc(Cl)cc4Cl)O3)cc2)CC1 (centres unmarked) [Terconazole]
IC50 (Sigma-1 receptor): 0.159 µM | Antiviral activity: Virus (MERS-CoV): in vitro activity | Antiviral activity: Virus (EBOV): active | Antiviral activity: Virus (SARS-CoV): in vitro activity; also recorded: SARS-CoV SARS-CoV-2

(±)-Butaclamol
IC50 (Sigma-1 receptor): 0.343 µM

COc1ccc(CCN2CCC(Nc3nc4ccccc4n3Cc3ccc(F)cc3)CC2)cc1 [Astemizole]
Antiviral activity: Virus (MERS-CoV): in vitro activity | Antiviral activity: Virus (EBOV): active | Antiviral activity: Virus (SARS-CoV): in vitro activity

CNCCCC1c2ccccc2C=Cc2ccccc21 [Protriptyline]
IC50 (Sigma-1 receptor): 0.307 µM | alleviation of HCV-induced cytopathic effect (n4mBid cell viability relative to untreated cells) [2]: increase n4mBid cell viability

O=C1NCN(c2ccccc2)C12CCN(CCCC(c1ccc(F)cc1)c1ccc(F)cc1)CC2 [Fluspirilene]
IC50 (Sigma-1 receptor): 0.38 µM and 0.563 µM | Ki (Sigma-1 receptor): 0.15 µM | Antiviral activity: Virus (MERS-CoV): in vitro activity | Antiviral activity: Virus (SARS-CoV): in vitro activity

CCN(CC)Cc1cc(Nc2ccnc3cc(Cl)ccc23)ccc1O [Amodiaquine]
IC50 (Sigma-1 receptor): 0.355 µM | Antiviral activity: Virus (MERS-CoV): in vitro activity | Antiviral activity: Virus (SARS-CoV): in vitro activity

CC(C)(C)[C@]1(O)CCN2C[C@H]3c4ccccc4CCc4cccc(c43)[C@@H]2C1 [butaclamol]
alleviation of HCV-induced cytopathic effect (n4mBid cell viability relative to untreated cells) [2]: increase n4mBid cell viability

CN1CCN(c2nc3cc(C(F)(F)F)ccc3n3cccc23)CC1.O=C(O)/C=C\C(=O)O.O=C(O)/C=C\C(=O)O [CGS 12066B]
IC50 (Sigma-1 receptor): 1.18 µM | reduction in HCV infection of Huh-7 cells, as compared to the vehicle DMSO control [1]: > 85%

OCCN1CCN(CCCN2c3ccccc3Sc3ccc(C(F)(F)F)cc32)CC1 [Fluphenazine]
Antiviral activity: Virus (MERS-CoV): in vitro activity | Antiviral activity: Virus (EBOV): active | Antiviral activity: Virus (SARS-CoV): in vitro activity; also recorded: SARS-CoV SARS-CoV-2 | reduction in HCV infection of Huh-7 cells, as compared to the vehicle DMSO control [1]: > 85%

Clc1ccc(C(OCCN2CCCCC2)c2ccccc2)cc1 (centres unmarked) [Cloperastine]
IC50 (Sigma-1 receptor): 0.277 µM | Ki (Sigma-1 receptor): 0.02 µM

COc1ccc(CN2CCN(C(c3ccc(F)cc3)c3ccc(F)cc3)CC2)c(OC)c1OC [Lomerizine]
IC50 (Sigma-1 receptor): 0.037 µM | Antiviral activity: Virus (EBOV): active

Oc1cc2c(cc1O)C(c1ccccc1)CNCC2 (centres unmarked) [SKF-38393]
alleviation of HCV-induced cytopathic effect (n4mBid cell viability relative to untreated cells) [2]: increase n4mBid cell viability

Fc1ccc(-n2cc(CCCCN3CCC4(CC3)OCc3ccccc34)c3ccccc32)cc1 [Siramesine]
IC50 (Sigma-1 receptor): 0.017 µM

CCN(CC)CCCC(C)Nc1c2ccc(Cl)cc2nc2ccc(OC)cc12 (centres unmarked) [Quinacrine]
IC50 (Sigma-1 receptor): 0.953 µM | Antiviral activity: Virus (EBOV): active

C[C@@H]1CN(CCCn2c3ccccc3c3ccccc32)C[C@H](C)N1 [Rimcazole, 9-[3-(cis-3,5-Dimethyl-1-piperazinyl)-propyl]carbazole]
IC50 (Sigma-1 receptor): […] | Ki (Sigma-1 receptor): […] | reduction in HCV infection of Huh-7 cells, as compared to the vehicle DMSO control [1]: > 85%

O=[N+]([O-])c1ccc2nc(N3CCNCC3)ccc2c1 [Quipazine-6N]
IC50 (Sigma-1 receptor): 1.25 µM | alleviation of HCV-induced cytopathic effect (n4mBid cell viability relative to untreated cells) [2]: increase n4mBid cell viability

CN(CCCN1c2ccccc2CCc2ccccc21)CC(=O)c1ccc(Cl)cc1 [Lofepramine]
Sigma-1 receptor affinity, inhibition (Sigma-1 receptor; at 10 µM): 100% inh. at 10 µM | Ki (Sigma-1 receptor): 2.52 µM | reduction in HCV infection of Huh-7 cells, as compared to the vehicle DMSO control [1]: > 85%

CN(C)CCOc1ccc(/C(=C(/CCCl)c2ccccc2)c2ccccc2)cc1 [Toremifene]
IC50 (Sigma-1 receptor): 0.22 µM | Antiviral activity: Virus (MERS-CoV): in vitro activity | Antiviral activity: Virus (EBOV): active | Antiviral activity: Virus (SARS-CoV): in vitro activity; also recorded: SARS-CoV SARS-CoV-2 | reduction in HCV infection of Huh-7 cells, as compared to the vehicle DMSO control [1]: > 85%

CNCCCC12CCC(c3ccccc31)c1ccccc12 [Maprotiline]
Antiviral activity: Virus (EBOV): active

OC(c1cc(C(F)(F)F)nc2c(C(F)(F)F)cccc12)C1CCCCN1 (centres unmarked) [Mefloquine]
IC50 (Sigma-1 receptor): 2.56 µM | Antiviral activity: Virus (MERS-CoV): in vitro activity | Antiviral activity: Virus (SARS-CoV): in vitro activity

CN(C)CCCN1c2ccccc2Sc2ccc(C(F)(F)F)cc21 [Triflupromazine]
IC50 (Sigma-1 receptor): 0.47 µM and 0.605 µM | Ki (Sigma-1 receptor): 0.154 µM | Antiviral activity: Virus (MERS-CoV): in vitro activity | Antiviral activity: Virus (SARS-CoV): in vitro activity | alleviation of HCV-induced cytopathic effect (n4mBid cell viability relative to untreated cells) [2]: increase n4mBid cell viability

Cc1nc2sccn2c(=O)c1CCN1CCC(=C(c2ccc(F)cc2)c2ccc(F)cc2)CC1 [Ritanserin]
IC50 (Sigma-1 receptor): 0.19 µM | alleviation of HCV-induced cytopathic effect (n4mBid cell viability relative to untreated cells) [2]: increase n4mBid cell viability

CN1CCCC(n2nc(Cc3ccc(Cl)cc3)c3ccccc3c2=O)CC1 (centres unmarked) [Azelastine]
IC50 (Sigma-1 receptor): 0.274 µM | reduction in HCV infection of Huh-7 cells, as compared to the vehicle DMSO control [1]: > 85%

CN1CCN(CC/C=C2/c3ccccc3Sc3ccc(S(=O)(=O)N(C)C)cc32)CC1 [Thiothixene]
IC50 (Sigma-1 receptor): 0.353 µM | Antiviral activity: Virus (MERS-CoV): in vitro activity | Antiviral activity: Virus (SARS-CoV): in vitro activity

CC(COc1ccccc1Cc1ccccc1)N1CCCCC1 (centres unmarked) [Benproperine]
IC50 (Sigma-1 receptor): 0.019 µM | reduction in HCV infection of Huh-7 cells, as compared to the vehicle DMSO control [1]: > 85%

Cc1cc2c(s1)Nc1ccccc1N=C2N1CCN(C)CC1 [olanzapine]
Sig-1R activity (Sigma-1 receptor): no significant Sig-1R activity

OC(CCN1CCCCC1)(c1ccccc1)C1CC2C=CC1C2 (centres unmarked) [biperiden]
alleviation of HCV-induced cytopathic effect (n4mBid cell viability relative to untreated cells) [2]: increase n4mBid cell viability

Clc1ccc2c(c1)CCc1cccnc1C2=C1CCNCC1 [Desloratadine]
reduction in HCV infection of Huh-7 cells, as compared to the vehicle DMSO control [1]: > 85%
